# Measured values published in patent publication US20250205312A1, “Orally Available Albenatide” (AlbuNext, LLC, priority 2023, published 2025).
# Where “and” joins values, the source holds several entries; their conditions need not be identical. Equal values may be shown once.
# Tested on: db/db mice
# Experiment: Pharmacodynamics study: blood glucose level-time profiles after single treatment
# Assay type: in vivo
# Settings: SC 0.8 mg/kg
# Text: For pharmacodynamics studies, db/db mice were randomly divided into 5 groups (n=3). The test article preparation and dosing procedure followed the same way as described in PK study above. The study protocol is described in Table 6.
substance,measurement,setting,value
CJC-1134 [CJC-1134-SC],"Blood Glucose AUC, Mean",db/db mice (n=3),364.1 mmol·h/L
same,"Blood Glucose Level, Mean","db/db mice (n=3), 0 h after fasting",15.2 mmol/L
same,"Blood Glucose Level, Mean","db/db mice (n=3), 0.25 h",22.4 mmol/L
same,"Blood Glucose Level, Mean","db/db mice (n=3), 0.5 h",19.6 mmol/L
same,"Blood Glucose Level, Mean","db/db mice (n=3), 1 h",14.6 mmol/L
same,"Blood Glucose Level, Mean","db/db mice (n=3), 3 h",13.5 mmol/L
same,"Blood Glucose Level, Mean","db/db mice (n=3), 6 h",16.3 mmol/L
same,"Blood Glucose Level, Mean","db/db mice (n=3), 8 h",13.0 mmol/L
same,"Blood Glucose Level, Mean","db/db mice (n=3), 24 h",17.4 mmol/L
same,Blood Glucose Level,"db/db mice, 0 h after fasting, individual mice, 0.8 mg/kg",8.7 mmol/L and 16.4 mmol/L and 20.6 mmol/L
same,Blood Glucose Level,"db/db mice, 0.25 h, individual mice, 0.8 mg/kg",20.5 mmol/L and 21.2 mmol/L and 25.6 mmol/L
same,Blood Glucose Level,"db/db mice, 0.5 h, individual mice, 0.8 mg/kg",18.8 mmol/L and 21.0 mmol/L and 19.0 mmol/L
same,Blood Glucose Level,"db/db mice, 1 h, individual mice, 0.8 mg/kg",11.5 mmol/L and 16.5 mmol/L and 15.9 mmol/L
same,Blood Glucose Level,"db/db mice, 3 h, individual mice, 0.8 mg/kg",10.4 mmol/L and 14.0 mmol/L and 16.1 mmol/L
same,Blood Glucose Level,"db/db mice, 6 h, individual mice, 0.8 mg/kg",12.7 mmol/L and 18.7 mmol/L and 17.5 mmol/L
same,Blood Glucose Level,"db/db mice, 8 h, individual mice, 0.8 mg/kg",11.3 mmol/L and 16.3 mmol/L and 11.4 mmol/L
same,Blood Glucose Level,"db/db mice, 24 h, individual mice, 0.8 mg/kg",17.0 mmol/L and 16.9 mmol/L and 18.4 mmol/L
same,Blood Glucose AUC,"db/db mice, individual mice, 0.8 mg/kg",323.1 mmol·h/L and 399.5 mmol·h/L and 369.8 mmol·h/L
